The source made the active and inactive calls. No cut-off for these calls is given here.

Data set [1] in a line: Toxicity in female BALB/c mouse implanted with mouse 4T1 cells assessed as spleen inflammation at 10 mg/kg, iv. In kind it is organism-based. The following applies: in vivo.
Data set [2] can be described thus: Toxicity in female BALB/c mouse implanted with mouse 4T1 cells assessed as heart lesion at 10 mg/kg, iv. In kind it is organism-based. The note with it: in vivo.
Data set [3] concerns 4T1. Description: Antitumor activity against mouse 4T1 cells implanted in female BALB/c mouse assessed as increase in MDA level in tumor at 10 mg/kg, iv administered upto 5 days by Western blot analysis. The note with it: time <= 5.0 day. In kind it is functional, organism-based. Background: Immunoblotting shows a protein as a band on a membrane.
The test system of data set [4] is MDA-MB-468. Description: Induction of apoptosis in human MDA-MB-468 cells assessed as increase in caspase 3/7 activation at 25 nM measured at 4 hrs by Western blot analysis. In kind it is functional, cell-based.
Data set [5] can be described thus: Toxicity in female BALB/c mouse implanted with mouse 4T1 cells assessed as kidney lesion at 10 mg/kg, iv. In kind it is organism-based. The following applies: in vivo.
Data set [6] relates to MDA-MB-468. Description: Induction of ferroptosis in human MDA-MB-468 cells assessed as lipid peroxidation level by measuring fluorescence intensity at 25 nM incubated for 6 hrs in presence of ferrostatin-1 by C11-BODIPY staining based microscopic analysis. In kind it is functional, cell-based.
Data set [7] relates to 4T1. Description: Antitumor activity against mouse 4T1 cells implanted in female BALB/c mouse assessed as increase in phospho PERK level in tumor at 10 mg/kg, iv administered upto 5 days by Western blot analysis. In kind it is functional, organism-based. The following applies: time <= 5.0 day.
The test system of data set [8] is MDA-MB-468. Description: Antiproliferative activity against human MDA-MB-468 cells assessed as reduction in cell viability at 50 nM incubated for 48 hrs in presence of N-acetyl cysteine by MTT assay. In kind it is functional, cell-based. For orientation: Tetrazolium dyes change colour on reduction, which living cells bring about.
The nature of data set [9]: Toxicity in female BALB/c mouse implanted with mouse 4T1 cells assessed as lung lesion at 10 mg/kg, iv. In kind it is organism-based. The note with it: in vivo.
The subject of data set [10] is MDA-MB-468. Briefly: Induction of ferroptosis in human MDA-MB-468 cells assessed as decrease in 4-HNE level at 25 nM in presence of ferrostatin-1. In kind it is functional, cell-based.
Data set [11] relates to MDA-MB-468. Briefly: Induction of apoptosis in human MDA-MB-468 cells assessed as increase in cleaved PARP level at 25 nM measured after 48 hrs by Western blot analysis. In kind it is functional, cell-based.
The subject of data set [12] is 4T1. Description: Antitumor activity against mouse 4T1 cells implanted in female BALB/c mouse assessed as increase in CHOP level in tumor at 10 mg/kg, iv administered upto 5 days by Western blot analysis. In kind it is functional, organism-based. The following applies: time <= 5.0 day.
Data set [13] in a line: Toxicity in female BALB/c mouse implanted with mouse 4T1 cells assessed as spleen lesion at 10 mg/kg, iv. In kind it is organism-based. The following applies: in vivo.
Data set [14] deals with MDA-MB-468. Briefly: Induction of apoptosis in human MDA-MB-468 cells assessed as increase in caspase 3/7 activation at 25 nM measured at 12 hrs in presence of 4-PBA by Western blot analysis. In kind it is functional, cell-based.
In data set [15] the test system is MDA-MB-468. Briefly: Induction of apoptosis in human MDA-MB-468 cells assessed as increase in cleaved caspase 3 level at 25 nM measured after 48 hrs by Western blot analysis. In kind it is functional, cell-based.
The target of data set [16] is T1, Thioredoxin reductase 1, cytoplasmic (Homo sapiens) (UniProt Q16881).
T1 sequence (whole entry): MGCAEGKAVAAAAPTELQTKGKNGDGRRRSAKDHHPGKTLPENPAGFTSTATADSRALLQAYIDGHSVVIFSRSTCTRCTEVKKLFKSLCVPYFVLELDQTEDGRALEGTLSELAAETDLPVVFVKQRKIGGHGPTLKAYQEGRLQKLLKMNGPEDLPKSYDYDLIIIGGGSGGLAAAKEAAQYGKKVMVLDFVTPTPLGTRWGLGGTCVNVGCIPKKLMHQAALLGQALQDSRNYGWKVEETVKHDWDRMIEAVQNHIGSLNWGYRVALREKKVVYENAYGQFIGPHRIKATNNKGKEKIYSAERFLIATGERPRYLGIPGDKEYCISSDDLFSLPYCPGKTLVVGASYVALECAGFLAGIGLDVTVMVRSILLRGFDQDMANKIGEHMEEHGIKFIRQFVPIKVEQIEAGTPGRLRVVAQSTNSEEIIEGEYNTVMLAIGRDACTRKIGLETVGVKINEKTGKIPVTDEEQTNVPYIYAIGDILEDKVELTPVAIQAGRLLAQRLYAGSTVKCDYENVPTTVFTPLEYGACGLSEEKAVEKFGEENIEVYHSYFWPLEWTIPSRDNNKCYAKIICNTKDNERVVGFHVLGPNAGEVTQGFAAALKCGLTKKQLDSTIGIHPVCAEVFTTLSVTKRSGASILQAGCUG
Briefly: Inhibition of recombinant TRXR1 (unknown origin) assessed as reduction in DTNB incubated for 2 hrs in presence of NADPH by microplate reader analysis.

In data set [17] the test system is MDA-MB-468. Briefly: Effect on TRXR1 expression in human MDA-MB-468 cells at 25 nM incubated for 24 hrs by Western blot analysis. In kind it is functional, cell-based.
In another data set the test system is HEK293. Briefly: Antiproliferative activity against human HEK293 cells assessed as cell viability at 10 nM incubated for 48 hrs by MTT assay. In kind it is toxicity, cell-based. The following applies: hek293, 48 h, 0.01 µM.
Data set [18] can be described thus: Toxicity in female BALB/c mouse implanted with mouse 4T1 cells assessed as liver inflammation at 10 mg/kg, iv. In kind it is organism-based. The note with it: in vivo.
The subject of a further data set is Cisplatin-resistant 4T1. Briefly: Antitumor activity against mouse Cisplatin-resistant 4T1 cells implanted in female BALB/c mouse assessed as increase in 4-HNE level at 10 mg/kg, ip. In kind it is functional, organism-based.
The nature of data set [19]: Toxicity in female BALB/c mouse implanted with mouse 4T1 cells assessed as kidney damage at 10 mg/kg, iv. In kind it is organism-based. The following applies: in vivo.
The subject of data set [20] is MDA-MB-468. Description: Induction of endoplasmic reticulum (ER) stress-mediated apoptosis in human MDA-MB-468 cells assessed as reduction in ATF4 expression at 25 nM measured for 12 hrs in presence of 4-PBA by Western blot analysis. In kind it is functional, cell-based.
The subject of data set [21] is MDA-MB-468. Briefly: Antiproliferative activity against human MDA-MB-468 cells assessed as reduction in cell viability at 50 nM incubated for 48 hrs in presence of Z-VAD by MTT assay. In kind it is functional, cell-based.
Data set [22] concerns 4T1. Briefly: Antitumor activity against mouse 4T1 cells implanted in female BALB/c mouse assessed as increase in ATF4 level in tumor at 10 mg/kg, iv administered upto 5 days by Western blot analysis. In kind it is functional, organism-based. The following applies: time <= 5.0 day.
Data set [23] relates to MDA-MB-468. Briefly: Induction of mitochondrial ROS generation in human MDA-MB-468 cells at 25 nM incubated for 6 hrs by MitoSOX dye staining based flow cytometry analysis. In kind it is functional, cell-based. (A flow cytometer gives signals particle by particle.)
A short description of data set [24]: Toxicity in female BALB/c mouse implanted with mouse 4T1 cells assessed as liver damage at 10 mg/kg, iv. In kind it is organism-based. The following applies: in vivo.
Data set [25] relates to MDA-MB-468. Description: Induction of ferroptosis in human MDA-MB-468 cells expressing GPX4 assessed as reduction in lipid peroxidation level at 25 nM incubated for 6 hrs by C11-BODIPY staining based flow cytometry analysis. In kind it is functional, cell-based.
Data set [26] relates to MDA-MB-468. Description: Induction of endoplasmic reticulum (ER) stress-mediated apoptosis in human MDA-MB-468 cells assessed as increase in ATF4 expression at 25 nM measured at 4 to 48 hrs by Western blot analysis. In kind it is functional, cell-based. The note with it: time 4-48 hrs.
For data set [27], the system named is MDA-MB-468. Description: Induction of endoplasmic reticulum (ER) stress-mediated apoptosis in human MDA-MB-468 cells assessed as increase in CHOP expression at 25 nM measured at 4 to 48 hrs by Western blot analysis. In kind it is functional, cell-based. The note with it: time 4-48 hrs.
For data set [28], the system named is MDA-MB-468. Briefly: Induction of ferroptosis in human MDA-MB-468 cells assessed as increase in lipid peroxidation at 25 nM by C11-BODIPY staining based flow cytometry analysis. In kind it is functional, cell-based. The following applies: time <= 24.0 hrs.

`CCCCCCC[C@@H]1CC(=O)N[C@H](Cc2ccccc2)C(=O)N[C@H]2CSSC[C@H](NC2=O)C(=O)O1`: the Activity result (in data set [1]; in data set [2]; in [5]; in data set [9]; in data set [13]; in the data set on HEK293) was “Non-toxic” each time. For the same compound, the Activity entry in [18], in data set [19] and in [24] was “Non-toxic” throughout. Further, the result in the data set on 4T1 [3], in the data set on MDA-MB-468 [4], in the data set with MDA-MB-468 [6], in the data set on 4T1 [7], in the data set on MDA-MB-468 [8] and in the data set with MDA-MB-468 [10] was Active. Further, the result with MDA-MB-468 [11], in the data set with 4T1 [12], in the data set on MDA-MB-468 [14], in the data set with MDA-MB-468 [15], in the data set on Cisplatin-resistant 4T1 and in the data set on MDA-MB-468 [20] was Active. Further, the result in the data set on MDA-MB-468 [21], in the data set on 4T1 [22] and with MDA-MB-468 [23] was Active. In [16], the inhibition entry was “Active”. The result in the data set on MDA-MB-468 [17] was inactive.
On to `CCCCCCC[C@@H](O)CC(=O)N[C@H](Cc1ccccc1)C(=O)N[C@H]1CSSC[C@@H](C(=O)O)NC1=O`, for which the result in the data set on MDA-MB-468 [6], with MDA-MB-468 [10], in the data set on MDA-MB-468 [25], in the data set with MDA-MB-468 [26], in the data set with MDA-MB-468 [14] and in the data set with MDA-MB-468 [27] was Active. The inhibition result in [16] was “inactive”. Also, the outcome in the data set on MDA-MB-468 [17], in the data set on MDA-MB-468 [20] and in the data set with MDA-MB-468 [23] was inactive. For the same compound, the Activity result in the data set with MDA-MB-468 [28] was “Time-dependent-effect”.
On to `CCCCCCC[C@@H]1CC(=O)N[C@H](Cc2ccccc2)C(=O)N[C@@H](CSC)C(=O)N[C@@H](CSC)C(=O)O1`, for which the outcome in the data set on MDA-MB-468 [6], in the data set on MDA-MB-468 [10], in the data set with MDA-MB-468 [25], in the data set with MDA-MB-468 [26], with MDA-MB-468 [14] and with MDA-MB-468 [27] was Active. The inhibition result in [16] was “inactive”. In addition, the result in the data set on MDA-MB-468 [17], in the data set on MDA-MB-468 [20] and in the data set on MDA-MB-468 [23] was inactive. For the same compound, the Activity result in the data set with MDA-MB-468 [28] was “Time-dependent-effect”.

Source of the values: ChEMBL document CHEMBL6078706, “Deciphering the Comprehensive Structure-Activity Relationship of Sunshinamide for Breast Cancer Therapy through Dual Modulation of Apoptotic and Ferroptotic Pathways via TrxR1 and Gpx4 Inhibition” (J Med Chem, 2024).
